“Also recorded” adds a separate entry of the source.
How the values were obtained:
[1] = tested on: amber codon (UAG) in GFP templates; experiment: Amber codon suppression in E. coli cell-free translation system (GFP fluorescence); assay type: biochemical
Description: FIG. 22. Comparative analysis of amber codon suppression efficiencies in E. coli cell-free translation system with different nnAA/o-tRNA/aaRS combinations. A: The structure of nnAAs used here. B-D: Suppression Amber suppression of A_151X template. The suppression efficiency is defined as a ratio compared to the fluorescence of percentage of wild type eGFP fluorescence wild type eGFP without stop codon inside its ORF. B: Incorporation of four nnAAs by three PylRS variants. The final concentrations of PylTcua, PylRS variants and nnAAs were 20 μM, 20 μM and 1 mM, respectively. C: AzF incorporation by four MjY tRNA variants. MjY1, MjY2, MjY3 and MjY4 are corresponding to the tRNAs pAzPhe1, pAzPhe2, pAzPhe3 and tRNAopt CUA in original publication^35,37. The final concentrations of MjYtRNA variants, AzFRS and AzF are 10 μM, 10 μM and 1 mM, respectively. D: Effect of o-tRNA and o-aaRS concentrations on amber codon suppression efficiency of MjY2/AzFRS/AzF and PylT/PylRSAF/PrK. E: The effect of codon contexts on nnAA incorporation efficiency in two orthogonal systems. The concentration of MjY2 and AzFRS were 10 μM for both while PylT and PylRS were used at 20 and 30 μM, respectively. Four templates, named A_1X, A_151X, B_1X and B_151X, were used in the analysis (sequences are shown in SI). A and B denote the template backbones with different codon biases where codon vocabulary in A is optimized for eGFP while in B it is simplified mostly utilizing the unique codon to decode each amino acid type. The numeric indicates the position of amber codon in ORF sequence. The relative activity in individual reactions is given as a percent of fluorescent intensity provided while obtained when using EctRNATyr(cua) as a suppressor.
(§1) The tRNA-depleted lysate is prepared as described by ethanolamine-sepharose affinity chromatography^24. DNA templates with two GFP ORFs: one of optimized codon composition for eGFP (Template A) and the other of simplified codon composition for sGFP (Template B), were used. Mutations to amber or AGG-codon were introduced either by synthesizing the whole gene fragments as gBlocks by IDT to change all the 6 Arg codons to AGG simultaneously or using PCR with the proper primers to introduce mutations with less than 3 nucleotides at the same position. The obtained fragments were cloned into the pLTE or pOPINE-based plasmids following the standard Gibson assembly cloning procedure (NEB). The correct plasmids with desired mutations were purified by Midiprep Kit (Qiagen) to ensure good quality for cell free protein translation. The sequence information of all the open reading frames used here is provided in SI.
The cell-free translation reactions for GFP production were performed following the standard protocol^60 with the optimized Mg^2+ at 10 mM concentration. 0.35 volume of depleted lysate, same as that for the standard S30 lysate, was used in the reaction. […] GFP production was monitored on a fluorescence plate reader (Synergy) at 30° C. for 3-5 h at 485 nm excitation and 528 nm emission wavelengths.
We tested the recombinant forms of PylRS variants for their ability to support in vitro synthesis of eGFP synthesis from the template containing amber-codon at 151 position (A_151X, SI) in the presence of an evolved o-tRNA harboring U25C mutation in its anticodon stem (PylT)^14 and nnAA-substrates BCN, TCO or TCO*. Another nnAA PrK (FIG. 22A) for also used for azide-coupling known to be accommodated and charged to tRNA by wt MbPylRS30 and […], MmPylRS5, was also tested. […] Neither of these large aliphatic alkynes or alkenes could be incorporated by either of three PylRS mutants with efficiency above 5%. […] The latter confirms the promiscuity of engineered PylRS variant to various substrates reported in a comprehensive study^35

[2] = tested on: amber codon in A_151X template; experiment: Amber suppression by flexizyme-precharged nnAA-tRNA, A_151X template; assay type: biochemical, E. coli; details: five nnAAs; precharged tRNA 10, 20 or 30 uM
Description: FIG. 29. The incorporation efficiency of 5 nnAAs precharged by flexizyme with their respective active group. A: The structure of five activated acid substrates for tRNA acylation by Flexizyme, including L-Propargylglycine 4-chlorobenzyl thioester (Pra-CBT), L-Azidolysine 4-chlorobenzyl thioester (Lys(N3)-CBT), L-Azidohomoalanine 4-chlorobenzyl thioester (Aha-CBT), NE-biotinyl-L-lysine 3,5-dinitrobenzyl ester (Lys(biotin)-DBN) and L-Azidophenylalanine-cyanomethyl ester (AzF-CME). The nnAAs are shown in black while their respective active groups in red. B: The amber suppression efficiency of 5 nnAAs precharged tRNA tested by using A_151X template in the cell free translation system. The precharged tRNA was used to prime the translational reactions at 10, 20 or 30 uM of final tRNA concentration. The flexizyme reaction time and the final concentration of precharged nnAA-tRNAs were indicated.
C-terminal Cys were added into sequence of the affinity clamp protein (pdz-fibronectin Fusion Protein, PDB: 3CH8_A). The purified protein with C-terminal Cys was immobilized on Iodoacetyl Gel (UltraLink®) using manufacture's protocol. tRNA charging by flexizyme for amber suppression: The acylation reaction were performed as described before^62. 1 volume of 250 μM o-tRNA was mixed with the same volume of 50 μM Fx ([…]) and 3 volume of water. […]

AGG codon in GFP ORFs = experiment: AGG reassignment to AzF in cell-free system depleted of tRNA species decoding AGG; assay type: biochemical, E. coli; details: all four templates
Method: FIG. 23. AGG reassignment to AzF in the context of four GFP ORFs. The GFP protein was expressed in cell-free system depleted of tRNA species decoding AGG codon with and without addition of MjY suppression system (MjY2/AzFRS). The final concentrations for MjY2, AzFRS, AzF are were 10 μM, 10 μM and 1 mM, respectively. The anticodon in MjY2 was changed to CCU in order to reassign AGG codon to AzF.
as §1, with “The obtained fragments were cloned into the pLTE or pOPINE-based plasmids following the standard Gibson assembly cloning procedure (NEB). The correct plasmids with desired mutations were purified by Midiprep Kit (Qiagen) to ensure good quality for cell free protein translation.” left out
The cell-free translation reactions for GFP production were performed following the standard protocol^60 with the optimized Mg^2+ at 10 mM concentration. […] GFP production was monitored on a fluorescence plate reader (Synergy) at 30° C. for 3-5 h at 485 nm excitation and 528 nm emission wavelengths. […]

GCU Ser isoacceptor = experiment: Kissing loop binding to tRNA isoacceptor; design: species or system E. coli; details: read-out: affinity
Method: Kissing loop (KL) binds GCU Ser isoacceptor with high affinity (5-50 nM) through the formation of quasi-continuous double helix stabilized by the common stacking column between the planes of the nucleotide pairs (FIG. 16A). E. coli S30 lysate can be to a large extent depleted of total tRNA by the chromatography on ethanolamine sepharose. After the depletion lysate retains ˜60% of translational efficiency of its parental one if supplemented by commercially available total tRNA fraction (FIG. 16 B).

[3] = A_151X template, % of wild type eGFP fluorescence, PylTcua 20 μM, PylRS variant 20 μM, nnAA 1 mM

Bicyclo [6.1.0] nonyne-Lysine [BCN]
UAG suppression efficiency with BCNRS [1, 3]: 3% | efficiency of UAG suppression by either of three PylRS mutants ([1]; A_151X template, BCNRS, TCORS, PylRSAF): very low

C#CCN[C@@H](CCCCN)C(=O)O [PrK, N-Propargyl-Lysine]
incorporation with TCORS ([1]; A_151X template): essentially failed to incorporate | UAG suppression efficiency with BCNRS [1, 3]: essentially failed to incorporate | UAG suppression efficiency with PylRSAF [1, 3]: 13%

[N-]=[N+]=Nc1ccc(C[C@H](N)C(=O)O)cc1 [AzF, p-azidophenylalanine]
amber suppression efficiency among flexizyme-charged nnAAs [2]: best amber-codon incorporation efficiency; also recorded: highest translational activity | protein containing AzF (LC-MS/MS) ([1]; GFP151AzF sample, TAG codon): more than 80% | GFP protein modified with AzF (AGG codon in GFP ORFs): more than 80%

B1: MjY4: MjY tRNA with six mutations described in a later report (nucleic acid)
DNA: CCGGCGGTAGTTCAGCAGGGCAGAACGGCGGACTCTAAATCCGCATGGCAGGGGTTCAAATCCCCTCCGCCGGACCA
modifications: RNA, all phosphodiester, T or U not given here
notes: MjY tRNA with six mutations described in a later report
efficiency of MjY2 relative to the listed tRNA in AzF incorporation ([1]; A_151X, 10 μM tRNA, 10 μM AzFRS, 1 mM AzF): slightly better

B2: KL: RNA aptamer binding the anticodon loop of tRNA(Ser)GCU; SEQ ID NO:7 (nucleic acid)
chain: GGTAGTGAGGTAGTTAGCAGATACCTCACTACCAACACACACACAACACACACACAACACACAAGCT
modifications: “kissing loop” coding sequence with linker
Kd (GCU Ser isoacceptor): 5 to 50 nM

From US20180171321A1, “PLATFORM FOR A NON-NATURAL AMINO ACID INCORPORATION INTO PROTEINS” (THE UNIVERSITY OF QUEENSLAND, priority 2015, published 2018)
